biological target: interaction between GST-MAGEA11 MHD and FAM-PCF11_4 peptide (MAGE-A11:PCF11) (Homo sapiens (Human), UniProt P43364); test: TR-FRET dose response competition assay for disruption of MAGE-A11:PCF11 binding; conditions: Dose response TR-FRET screening of nine scaffold groups against MAGE-A11:PCF11; read-out: consensus IC50
In short: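 Competition TR-FRET at room temperature in 50 mM Tris pH 7.5, 20 mM MgCl2, 0.1 mg/ml BSA, 1 mM DTT: final 5 nM GST-MAGEA11 MHD, 5 nM Tb-anti-GST, 200 nM FAM-PCF11_4, 90 min. Ratio 520/490 nm converted to % inhibition; IC50 from sigmoidal fit.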

Sequence of interaction between GST-MAGEA11 MHD and FAM-PCF11_4 peptide (MAGE-A11:PCF11) (P43364 218-429): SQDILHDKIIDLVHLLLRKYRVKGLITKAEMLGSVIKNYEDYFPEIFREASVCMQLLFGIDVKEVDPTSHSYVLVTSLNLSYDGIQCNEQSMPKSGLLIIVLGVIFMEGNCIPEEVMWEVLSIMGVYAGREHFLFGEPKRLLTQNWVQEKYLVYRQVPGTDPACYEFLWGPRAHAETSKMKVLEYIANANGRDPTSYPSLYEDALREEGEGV

`FC(F)(F)Oc1ccc(CNCCCNc2ccnc3cc(Cl)ccc23)cc1` [SJ000521025-1] and `Clc1ccc2c(NCCCNCc3ccc4ccccc4c3)ccnc2c1` [SJ000523065-1] are the same in IC50: 69.9 µM for the first, 69.9 µM for the second.

Going from `COP(=O)(OC)c1nc(-c2ccc(Cl)cc2)oc1N1CCOCC1` [SJ000090185-1] to `CCOP(=O)(OCC)c1nc(-c2ccc(Cl)cc2)oc1N1CCOCC1` [SJ000090230-1], the IC50 rises from 17.4 µM to 69.9 µM (4-fold).

`COc1ccc(CN2C(=O)c3ccccc3NC2c2ccc(F)cc2)cc1` (stereo not drawn) [SJ000510740-1] and `O=C1c2ccccc2NC(c2ccc(Br)cc2)N1Cc1ccccc1` (stereo not drawn) [SJ000019546-2] are the same in IC50: 69.9 µM for the first, 69.9 µM for the second.

Going from `Fc1ccc(Cc2ccc3c(NCCCNCc4cccc5c4OCO5)ccnc3c2)cc1` [SJ000311244-1] to `CC(C)Cc1ccc2c(NCCCNCc3cccc4c3OCO4)ccnc2c1` [SJ000311260-1], the IC50 rises from 42.3 µM to 69.9 µM (1.7-fold). The first is the more potent here.

`CCOC(=O)c1ccc(NC2=C(N)C(=O)c3ccccc3C2=O)cc1` [SJ000032711-1] and `COC(=O)c1cccc(NC2=C(Cl)C(=O)c3ccccc3C2=O)c1` [SJ000024926-1] are the same in IC50: 69.9 µM for the first, 69.9 µM for the second.

`Cc1ccccc1CNC(=O)Cn1cnc2cc(-c3ccccc3)sc2c1=O` [SJ000453315-1] and `CC(C)(C)NC(=O)NC(=O)Cn1cnc2cc(-c3ccccc3)sc2c1=O` [SJ000427956-1] are the same in IC50: 69.9 µM for the first, 69.9 µM for the second.

`CCCn1c(-c2ccc(F)cc2)nc2c1c(=O)[nH]c(=O)n2Cc1ccccc1` [SJ000456724-1] and `CCCn1c(-c2ccc(C(=O)OC)cc2)nc2c1c(=O)[nH]c(=O)n2Cc1ccccc1` [SJ000420179-1] are the same in IC50: 69.9 µM for the first, 69.9 µM for the second.

`Cc1ccccc1-c1nc(S(=O)(=O)c2ccc(F)cc2)c(N2CC(C)OC(C)C2)o1` (stereo not drawn) [SJ000329031-1] and `Cc1ccc(-c2nc(S(=O)(=O)c3ccc(Cl)cc3)c(N3CCOCC3)o2)cc1` [SJ000140851-1] are the same in IC50: 69.9 µM for the first, 69.9 µM for the second.

`COc1cc2nc(N3CCN(C(=O)OCc4ccccc4)C(C(=O)NC(C)(C)C)C3)nc(N)c2cc1OC` (stereo not drawn) [SJ000288233-2] and `COc1cc(-c2nc3c(c(=O)[nH]c(=O)n3Cc3ccccc3)n2C)ccc1O` [SJ000430813-1] are the same in IC50: 69.9 µM for the first, 69.9 µM for the second.

`COc1ccc(CNCCCNc2ccnc3cc(Cl)ccc23)cc1O` [SJ000311192-1] and `Oc1ccc(Br)c(CNCCCNc2ccnc3cc(Cl)ccc23)c1` [SJ000311194-1] are the same in IC50: 69.9 µM for the first, 69.9 µM for the second.

`CCCn1c(=O)c2nc(-c3ccc(S(=O)(=O)O)cc3)[nH]c2n(CCC)c1=O` [SJ000287650-2] and `CCCCn1c(=O)[nH]c(=O)c2c1nc(-c1ccc(C#N)cc1)n2C` [SJ000421295-1] are the same in IC50: 69.9 µM for the first, 69.9 µM for the second.

Going from `COc1ccc(F)cc1CNCCCNc1ccnc2cc(CC(C)C)ccc12` [SJ000311261-1] to `COc1ccc(F)cc1CNCCCNc1ccnc2cc(Cc3ccc(F)cc3Cl)ccc12` [SJ000311325-1], the IC50 falls from 69.9 µM to 17.6 µM (4-fold). The second is the more potent here.

`Cn1c(-c2cccc(F)c2)nc2c1c(=O)[nH]c(=O)n2Cc1ccccc1` [SJ000387665-1] and `CCCn1c(-c2cccc(C(F)(F)F)c2)nc2c1c(=O)[nH]c(=O)n2Cc1ccccc1` [SJ000382289-1] are the same in IC50: 69.9 µM for the first, 69.9 µM for the second.

`COCCCn1c(-c2cccc(Cl)c2)nc2c1c(=O)[nH]c(=O)n2Cc1ccccc1` [SJ000383944-1] and `COCCn1c(-c2ccc(C)cc2)nc2c1c(=O)[nH]c(=O)n2CC(C)C` [SJ000421396-1] are the same in IC50: 69.9 µM for the first, 69.9 µM for the second.

`COc1ccc(-c2cc3nc[nH]c(=O)c3s2)cc1` [SJ000296726-1] and `CCCCn1c(=O)[nH]c(=O)c2c1nc(-c1ccc(OC)cc1)n2C` [SJ000425260-1] are the same in IC50: 69.9 µM for the first, 69.9 µM for the second.

`O=C1C(Cl)=C(N2CCOCC2)C(=O)c2ccccc21` [SJ000242799-1] and `CCNC1=C(Cl)C(=O)c2ccccc2C1=O` [SJ000157082-1] are the same in IC50: 69.9 µM for the first, 69.9 µM for the second.

Compared with `CCOc1ccc(N(C(C)=O)C2=C(Cl)C(=O)c3ccccc3C2=O)cc1` [SJ000030567-2], `CCCCCOc1ccc(N(C(C)=O)C2=C(Cl)C(=O)c3ccccc3C2=O)cc1` [SJ000032724-1] is 2.5-fold lower in IC50: 69.9 µM for the first, 28.3 µM for the second.

`CCn1c2ccccc2c2cc(CN3CCCC(O)C3)ccc21` (stereo not drawn) [SJ000550874-1] and `CCn1c2ccccc2c2cc(CN3CCN(Cc4c[nH]c5ccccc45)CC3)ccc21` [SJ000111264-1] are the same in IC50: 69.9 µM for the first, 69.9 µM for the second.

`CCCN1C(=O)c2ccccc2NC1c1ccc(F)cc1` (stereo not drawn) [SJ000026516-2] and `CCCN1C(=O)c2ccccc2NC1c1ccc(Cl)cc1` (stereo not drawn) [SJ000550608-1] are the same in IC50: 69.9 µM for the first, 69.9 µM for the second.

`COc1ccc2cc(C3Nc4ccccc4C(=O)N3CCCN3CCOCC3)ccc2c1` (stereo not drawn) [SJ000803763-1] and `CSc1ccc(C2Nc3ccccc3C(=O)N2CCCN2CCOCC2)cc1` (stereo not drawn) [SJ000803762-1] are within 1.5-fold of each other in IC50: 67.4 µM for the first, 71.3 µM for the second.

`Cc1ccc(-c2nc(C#N)c(N3CC(C)OC(C)C3)o2)cc1` (stereo not drawn) [SJ000478358-1] and `CCC(C)c1ccc(C2=C(c3ccc([N+](=O)[O-])cc3)C(=O)OC2)cc1` (stereo not drawn) [SJ000368165-1] are the same in IC50: 69.9 µM for the first, 69.9 µM for the second.

`CCCCn1c(=O)[nH]c(=O)c2c1nc(-c1ccc(OCC(=O)O)cc1)n2CCC(C)C` [SJ000431347-1] and `CCCCn1c(-c2ccc(OCCC)c(OCC)c2)nc2c1c(=O)[nH]c(=O)n2CCC` [SJ000378906-1] are the same in IC50: 69.9 µM for the first, 69.9 µM for the second.

First: COc1cccc(CNCCCNc2ccnc3cc(Cc4cc(C)cc(C)c4)ccc23)c1O [SJ000311319-1]
Second: COc1cccc(CNCCCNc2ccnc3cc(Cc4ccccc4)ccc23)c1O [SJ000311307-1]
The IC50 of the first is 3-fold lower: 23.6 µM for the first, 69.9 µM for the second. The first is the more potent here.

First: Fc1ccccc1CNCCCNc1ccnc2cc(Cl)ccc12 [SJ000523060-1]
Second: Clc1ccc2c(NCCCNCc3ccc(-c4ccccc4)cc3)ccnc2c1 [SJ000523064-1]
The IC50 of the first is 2-fold higher: 69.9 µM for the first, 34.9 µM for the second.

`Cn1c2ccccc2c2cc(C(=O)NCC3CCC4(CCN(Cc5ccccn5)CC4)O3)ccc21` (stereo not drawn) [SJ000308489-1] and `CC(NC=O)c1ccc2c(c1)c1ccccc1n2C` (stereo not drawn) [SJ000461804-1] are the same in IC50: 69.9 µM for the first, 69.9 µM for the second.

`CCCN1C(=O)c2ccccc2NC1c1cccc(F)c1` (stereo not drawn) [SJ000288416-1] and `CCCN1C(=O)c2ccccc2NC1c1ccc(OC)c(COc2ccccc2F)c1` (stereo not drawn) [SJ000295736-1] are the same in IC50: 69.9 µM for the first, 69.9 µM for the second.

Compared with `COc1cc(Cc2ccc3c(NCCCNCc4cc(F)ccc4OC)ccnc3c2)cc(OC)c1` [SJ000311313-1], `COc1cccc(Oc2ccc3c(NCCCNCc4cccc(OC)c4O)ccnc3c2)c1` [SJ000311215-1] is 2.1-fold higher in IC50: 33.8 µM for the first, 69.9 µM for the second. The first is the more potent here.

Going from `O=C1OCC(c2ccc(OC(F)F)cc2)=C1c1ccc([N+](=O)[O-])cc1` [SJ000368145-1] to `COc1cccc(CNCCCNc2ccnc3cc(Oc4ccc(Cl)cc4)ccc23)c1O` [SJ000311227-1], the IC50 falls from 40.8 µM to 20.7 µM (2-fold).

`COc1ccc(C2Nc3ccccc3C(=O)N2Cc2ccccc2)cc1Cn1nc(C)c(Cl)c1C` (stereo not drawn) [SJ000288637-1] and `Clc1ccc2c(NCCCNCc3c4ccccc4cc4ccccc34)ccnc2c1` [SJ000361122-2] are the same in IC50: 69.9 µM for the first, 69.9 µM for the second.

Compared with `CC(C)(C)c1ccc(O)c(CNCCCNc2ccnc3cc(Cl)ccc23)c1` [SJ000311193-1], `Fc1c(F)c(F)c(CNCCCNc2ccnc3cc(Cl)ccc23)c(F)c1F` [SJ000520910-1] is 2.3-fold higher in IC50: 30.4 µM for the first, 69.9 µM for the second.

`c1cc(CNCCCNc2ccnc3cc(-c4cccc5ccccc45)ccc23)c2c(c1)OCO2` [SJ000311276-1] and `c1ccc(Oc2ccc3c(NCCCNCc4cccc5c4OCO5)ccnc3c2)cc1` [SJ000311208-1] are within 1.5-fold of each other in IC50: 31.2 µM for the first, 30.1 µM for the second.

`C=CCOc1ccc(-c2nc3c(c(=O)[nH]c(=O)n3CCCC)n2C)cc1Br` [SJ000379462-1] was tested, and the IC50 was 69.9 µM.

same assay, conditions: Table 5, dose response TR-FRET screening of 59 quinoline compounds against MAGE-A11:PCF11; read-out: TR-FRET IC50

`COc1ccc(Oc2ccc3c(NCCCNCc4ccco4)ccnc3c2)cc1` [SJ000311218-1] and `Clc1ccc2c(NCCCNCc3cc4ccccc4s3)ccnc2c1` [SJ000521032-1] cannot be ordered by IC50: greater than 70 µM for the first, greater than 70 µM for the second.

`Fc1ccc(CN(CCCCNc2ccnc3cc(Cl)ccc23)Cc2ccccc2)cc1` [SJ000522725-1] and `Oc1c(F)cc(F)cc1CN(CCCCNc1ccnc2cc(Cl)ccc12)Cc1ccccc1` [SJ000357506-2] cannot be ordered by IC50: greater than 70 µM for the first, greater than 70 µM for the second.

With `CCCN(CCCNc1ccnc2cc(C(F)(F)F)ccc12)Cc1ccccc1OC` [SJ000523072-1] the IC50 was greater than 70 µM.

same assay, conditions: Table 8, representative compounds; read-out: TR-FRET IC50

`COc1cccc(Oc2ccc3c(NCCCNCc4cccc(OC)c4O)ccnc3c2)c1` [SJ000311215] and `COc1cccc(CNCCCNc2ccnc3cc(Oc4cccc(N(C)C)c4)ccc23)c1O` [SJ000311231] are the same in IC50: 69.9 µM for the first, 69.9 µM for the second.

`Clc1ccc2c(NCCCNCc3ccc4ccccc4c3)ccnc2c1` [SJ000523065] and `Fc1ccc(CNCCCNc2ccnc3cc(Cl)ccc23)cc1` [SJ000523062] are the same in IC50: 69.9 µM for the first, 69.9 µM for the second.

First: COc1ccc(F)c(CNCCCNc2ccnc3cc(C(F)(F)F)ccc23)c1 [SJ000521058]
Second: COc1ccc(F)cc1CNCCCNc1ccnc2cc(Cc3cccc(C(F)(F)F)c3)ccc12 [SJ000311301]
The IC50 of the first is 3.1-fold higher: 69.9 µM for the first, 22.2 µM for the second. The second is the more potent here.

Compared with `COc1ccc(F)cc1CNCCCNc1ccnc2cc(CC(C)C)ccc12` [SJ000311261], `COc1ccc(F)cc1CNCCCNc1ccnc2cc(CC3CCCCC3)ccc12` [SJ000311253] is 2.7-fold lower in IC50: 69.9 µM for the first, 26.3 µM for the second.

`Oc1ccc(Br)cc1CNCCCNc1ccnc2cc(Cl)ccc12` [SJ000311186] and `COc1ccccc1CNCCCNc1ccnc2cc(Cl)ccc12` [SJ000311185] are the same in IC50: 69.9 µM for the first, 69.9 µM for the second.

`COc1cccc(CNCCCNc2ccnc3cc(Cc4c(Cl)cccc4Cl)ccc23)c1O` [SJ000311315] and `COc1ccc(F)cc1CNCCCNc1ccnc2cc(Cc3c(Cl)cccc3Cl)ccc12` [SJ000311317] are within 1.5-fold of each other in IC50: 13.8 µM for the first, 12.2 µM for the second.

`Fc1ccc(-c2ccc3c(NCCCNCc4cccc5c4OCO5)ccnc3c2)cc1` [SJ000311240] and `COc1ccc(F)cc1CNCCNc1ccnc2cc(-c3ccc4c(c3)OCO4)ccc12` [SJ000311293] are within 1.5-fold of each other in IC50: 25 µM for the first, 29.9 µM for the second.

Going from `COc1ccc(F)cc1CNCCCNc1ccnc2cc(Oc3ccccc3OC)ccc12` [SJ000311213] to `COc1cccc(CNCCCNc2ccnc3cc(Oc4ccc(C(C)(C)C)cc4)ccc23)c1O` [SJ000311235], the IC50 falls from 69.9 µM to 7.65 µM (9.1-fold). The second is the more potent here.
